# Assay results published in ChEMBL document CHEMBL3734697, “Fragment-Based Drug Design of Novel Pyranopyridones as Cell Active and Orally Bioavailable Tankyrase Inhibitors” (ACS Med Chem Lett, 2015).
# How the values were obtained:
# [1] = Kinetic solubility of compound by LYSA; format: physicochemical; conditions: read-out: Kinetic_solubility
# [2] = AUC (0 to last) in C57BL/6J mouse at 1 mg/kg, iv by LC/MS/MS analysis; format: ADME, organism-based; set-up: dose 1 mg/kg, route intravenous, time 0 - last; conditions: in vivo
# [3] = Solubility of compound in fed-state simulated intestinal fluid; format: ADME
# [4] = Volume of distribution at steady state in C57BL/6J mouse at 1 mg/kg, iv by LC/MS/MS analysis; format: ADME, organism-based; conditions: in vivo, read-out: Vdss
# [5] = Cmax in C57BL/6J mouse at 50 mg/kg, po by LC/MS/MS analysis; format: ADME, organism-based; set-up: dose 50 mg/kg, route oral; conditions: in vivo
# [6] = Clearance in Wistar/Han rat at 1 mg/kg, iv administered as single bolus dose; format: ADME, organism-based; conditions: in vivo
# [7] = Clearance in C57BL/6J mouse at 1 mg/kg, iv by LC/MS/MS analysis; format: ADME, organism-based; conditions: in vivo
# [8] = Tmax in C57BL/6J mouse at 50 mg/kg, po by LC/MS/MS analysis; format: ADME, organism-based; conditions: in vivo
# [9] = Oral bioavailability in C57BL/6J mouse at 50 mg/kg by LC/MS/MS analysis; format: ADME, organism-based; conditions: in vivo
# [10] = AUC (0 to last) in C57BL/6J mouse at 5 mg/kg, po by LC/MS/MS analysis; format: ADME, organism-based; set-up: dose 5 mg/kg, time 0 - last, route oral; conditions: in vivo
# [11] = Tmax in C57BL/6J mouse at 5 mg/kg, po by LC/MS/MS analysis; format: ADME, organism-based; conditions: in vivo
# [12] = Solubility of compound in fasted-state simulated intestinal fluid; format: ADME
# [13] = Oral bioavailability in C57BL/6J mouse at 5 mg/kg by LC/MS/MS analysis; format: ADME, organism-based; conditions: in vivo
# [14] = AUC (0 to last) in C57BL/6J mouse at 50 mg/kg, po by LC/MS/MS analysis; format: ADME, organism-based; set-up: dose 50 mg/kg, time 0 - last, route oral; conditions: in vivo
# [15] = Cmax in C57BL/6J mouse at 5 mg/kg, po by LC/MS/MS analysis; format: ADME, organism-based; set-up: dose 5 mg/kg, route oral; conditions: in vivo
# [16] = Clearance in Wistar/Han rat at 0.5 mg/kg, iv administered as single bolus dose; format: ADME, organism-based; conditions: in vivo
smiles,measurement,setting,value
O=C(C1COC1)N1CCC(C2Cc3[nH]c(=O)c4ccccc4c3CO2)CC1 (racemic),solubility kinetic,[1],13 µg/mL
Cc1cccc2c(=O)[nH]c3c(c12)COC(C(C)(C)CO)C3 (racemic),AUC(0-t),[2],600 ng·h/mL
same,solubility,[3],143 µg/mL
same,Vd,[4],1.5 L/kg
same,Cmax,[5],14000 ng/mL
same,clearance,[6],25 mL/min/kg
same,clearance,[7],28 mL/min/kg
same,Tmax,[8],15 min
same,bioavailability,[9],92%
same,AUC(0-t),[10],1400 ng·h/mL
same,Tmax,[11],15 min
same,solubility,[12],50 µg/mL
same,bioavailability,[13],49%
same,AUC(0-t),[14],27000 ng·h/mL
same,Cmax,[15],1600 ng/mL
same,solubility kinetic,[1],4 µg/mL
CS(=O)(=O)N1CCC(C2Cc3[nH]c(=O)c4ccccc4c3CO2)C1 (racemic),clearance,[16],47 mL/min/kg
same,solubility kinetic,[1],28 µg/mL
CC(C)C1Cc2[nH]c(=O)c3ccccc3c2CO1 (racemic),clearance,[16],37 mL/min/kg
same,solubility kinetic,[1],5 µg/mL
Cc1cccc2c(=O)[nH]c3c(c12)COC(C(C)C)C3 (racemic),clearance,[16],20 mL/min/kg
same,solubility kinetic,[1],< 1 µg/mL
CC(C)(CO)C1Cc2[nH]c(=O)c3ccccc3c2CO1 (racemic),solubility kinetic,[1],66 µg/mL
CC(C)C1Cc2[nH]c(=O)c3cccnc3c2CO1 (racemic),clearance,[16],10 mL/min/kg
same,solubility kinetic,[1],13 µg/mL
CC(C)(C)C1Cc2[nH]c(=O)c3ccccc3c2CO1 (racemic),clearance,[16],2 mL/min/kg
same,solubility kinetic,[1],< 1 µg/mL
